Measured values reported in publication PMC9814697, “β-Hydroxylation of α-amino-β-hydroxylbutanoyl-glycyluridine catalyzed by a nonheme hydroxylase ensures the maturation of caprazamycin” (Communications Chemistry, 2022).

Experiments:
Cpz10 = target: T1, Cpz10 (Streptomyces sp. MK730-62F2, UniProt C4NCJ7); test: X-ray crystal structure; type: binding
T1 construct: pET28a, E. coli BL21(DE3), His6-tag kept; homodimer in solution
T1 sequence (C4NCJ7 1-182): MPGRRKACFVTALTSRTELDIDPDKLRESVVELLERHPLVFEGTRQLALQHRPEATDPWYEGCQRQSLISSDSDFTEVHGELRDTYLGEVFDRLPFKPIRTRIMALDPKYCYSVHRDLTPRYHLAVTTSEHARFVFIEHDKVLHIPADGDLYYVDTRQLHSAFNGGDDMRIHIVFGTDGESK

Cpz15 = target: T2, Cpz15 (Streptomyces sp. MK730-62F2, UniProt C4NCK2); test: LC-MS turnover; type: biochemical; details: 1 mM UMP, 1.5 mM αKG, ascorbate, FeSO4, pH 8.0, 28 °C; product uridine 5'-aldehyde
T2 construct: pET28a, E. coli BL21(DE3), His6-tag kept
T2 sequence (C4NCK2 1-274): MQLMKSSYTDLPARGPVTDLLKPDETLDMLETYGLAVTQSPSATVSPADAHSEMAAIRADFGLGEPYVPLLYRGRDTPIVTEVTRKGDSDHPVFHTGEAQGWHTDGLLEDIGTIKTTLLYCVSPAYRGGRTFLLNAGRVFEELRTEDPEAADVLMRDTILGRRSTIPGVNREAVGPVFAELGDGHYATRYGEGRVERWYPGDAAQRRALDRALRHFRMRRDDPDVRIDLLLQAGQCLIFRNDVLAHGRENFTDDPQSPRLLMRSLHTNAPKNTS

Cpz27 = target: T3, Cpz27 (Streptomyces sp. MK730-62F2, UniProt C4NCL4); test: LC-MS turnover; type: biochemical; details: 1 mM, with 500 μM compound 13, 1 mM Mg, pH 8.0, 28 °C
T3 construct: pGM1202, Streptomyces lividans TK64, His6-tag kept

[1] = substrate: CSCC[C@H](N)C(=O)O; test: LC assay, Michaelis-Menten; type: biochemical, Streptomyces sp. MK730-62F2; details: pseudo-first order condition, αKG, ascorbate, FeSO4, pH 7.5, 28 °C, sulfoxidation to MSO

T3 sequence (C4NCL4 entry or part of it): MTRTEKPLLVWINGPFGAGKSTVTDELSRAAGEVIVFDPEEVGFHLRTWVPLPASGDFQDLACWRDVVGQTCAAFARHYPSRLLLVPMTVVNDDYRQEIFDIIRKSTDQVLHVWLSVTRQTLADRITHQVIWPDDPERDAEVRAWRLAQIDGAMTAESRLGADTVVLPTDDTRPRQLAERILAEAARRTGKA

## O=C(O)CCC(=O)O [succinic acid]
Cpz10; formed in crystal from soaked αKG, with compound 12 and Fe1
  X-ray crystal structure: αKG soaked in the crystals has been converted to succinic acid

## O=c1ccn([C@@H]2O[C@H](COP(=O)(O)O)[C@@H](O)[C@H]2O)c(=O)[nH]1 [UMP]
Cpz15
  LC-MS turnover: a new peak emerge on the LC trace concomitant with dwindling of UMP

## Nc1ncnc2c1ncn2[C@@H]1O[C@H](COP(=O)(O)OP(=O)(O)OP(=O)(O)O)[C@@H](O)[C@H]1O [ATP]
Cpz27
  LC-MS turnover: at the expense of one molecule of ATP

## O=C(O)CCC(=O)C(=O)O [αKG]
Cpz10; Fe1 present, 1.9 Å, bidentate to Fe1
  X-ray crystal structure: two complexes (with αKG (PDB code: 7V4M)

B1: Cpz10 (Streptomyces sp. MK730-62F2) (protein)
chain: MPGRRKACFVTALTSRTELDIDPDKLRESVVELLERHPLVFEGTRQLALQHRPEATDPWYEGCQRQSLISSDSDFTEVHGELRDTYLGEVFDRLPFKPIRTRIMALDPKYCYSVHRDLTPRYHLAVTTSEHARFVFIEHDKVLHIPADGDLYYVDTRQLHSAFNGGDDMRIHIVFGTDGESK
notes: pET28a, E. coli BL21(DE3), His6-tag kept; homodimer in solution
[1]
  Km: 892.1 ± 9 µM
  kcat: 0.977 ± 0.013 s⁻¹
